Measured values taken from patent publication US6180599A, “Pharmaceutical composition, containing medium-chain fatty acids as active ingredients, for dental caries and periodontal disease” (priority 1997, dated 2001).

Legend:
Lactobacillus casei = experiment: Extracellular polysaccharide synthesis in plaque bacteria separated from human oral cavities; assay type: cell-based; conditions: 1 mM
Protocol: (§1) In order to identify the effect by which medium-chain fatty acids inhibit plaque matrix formation, inhibitory effect and concentration of extracellular polysaccharide synthesis were determined in seven kinds of standard cariogenic plaque bacteria. Also, the inhibitory effect of extracellular polysaccharide synthesis for 20 kinds of cariogenic plaque bacteria, separated from the human oral cavity, was measured. Liquid culture media used were: Todd-Hewitt broth of Streptococcus, Lactobacilli MRS broth of Lactobacillus and Brain Heart Infusion broth of Actinomyces. 0.1 ml of bacterial (or cell) suspension (OD600 =0.5) of each bacteria was inoculated to 5.9 ml of culture media containing 1 mM of medium-chain fatty acids and 2% of glucose, and was cultured for 24^~ 48 hours in 10% CO2 incubator. After culturing, the resultant was centrifuged to precipitate at 5,000×g for 15 minutes, then soluble extracellular polysaccharide was separated and purified from the supernatant and insoluble extracellular polysaccharide from the cell pellet, and then these were quantified. So the experimental results that represent inhibitory effect of medium-chain fatty acids upon extracellular polysaccharide synthesis, are shown in table 1, 2, 3 and 4.

Streptococcus sobrinus = experiment: as above; assay type: cell-based; conditions: isolate XX, 1 mM
Protocol: as §1

Streptococcus mutans = experiment: as above; assay type: cell-based; conditions: 1 mM
Protocol: as §1

dental caries = experiment: Inhibitory effect on the occurrence of dental caries in rats; assay type: in vivo, Sprague-Dawley rats; conditions: for Linear unit for fissure-region dental caries, Dm: dentine moderate; for Linear unit for fissure-region dental caries, Dm / Linear unit for fissure-region dental caries, Ds / Linear unit for fissure-region dental caries, E: 50 mM in feed, 120 days; for Linear unit for fissure-region dental caries, Ds: dentine slight; for Linear unit for fissure-region dental caries, E: enamel only
Protocol: This experiment was carried out utilizing a dental caries experiment model in rats of Navia (1977) as followings.
Experimental animals were 48 (male: 24, female: 24) Sprague-Dawley rats, four-weeks old and of […] average body weight. These animals are equally divided into three groups according to sex and body weight at the early stage, and all these animals have clinically healthy teeth.
Experimental animals are divided into 3 groups according to diet, which are a control group of normal feed, a group of dental caries-induced feed and a experimental group of sodium laurate-added feed. Normal feed is solid feed for rodents (SAMYANG Co., Korea), caries-induced feed is prepared by mixing 40% sugar, 32% powdered milk, 21% flour, 5% yeast, 2% anchovy, 0.01% vitamin B and 0.01% vitamin C. Sodium laurate-added feed was prepared by adding 50 mM of sodium laurate to caries-induced feed. All the experimental animals were allowed water ad libitum.
One hundred twenty days later, all experimental animals were euthanized. The maxilla and mandible were separated, and fixed in 10% neutral formalin. A dental caries index was measured by the method originated by Keyes and modified by Larson (1981). Food debris remaining in the fissure of molar of maxilla and mandible was removed by a Barbed Broach tool used in clinical dentistry, then the molar teeth of maxilla and mandible were cut so that they could include the first, second, and third molar by using an Exact cutting system (Exact-Apprateb, Hamburg, Germany) equipped with a diamond-treated saw. Cutting of the molar teeth of both maxilla and mandible was carried out by a handpiece equipped with cutting disc (thickness, 0.004 inch; diameter, 0.75 inch). The direction of the cutting was from the mesial side of the first molar to the distal side of the third molar. The samples which were cut were stained in order to measure the dental caries-index easily. Staining was carried out as follows; samples were cultured with 0.02% solution of ammonium prupurate (murexide) for 12 hours, washed with flowing water for 10 minutes, then treated with 0.2% of ammoniacal silver nitrate for 30 seconds and washed with flowing water for 2 minutes before measurement. The degree of the affection of dental caries at the cut surface is classified into enamel only (E) when dental caries is affected only to enamel; and into slight (Ds), moderate (Dm) and extensive (Dx) according to the extent of affection when dental caries is affected further into the dentine. The total sum was calculated by adding up marks within the range of linear units administered to each tooth according to the modified method of Larson (1981).
Statistical analysis of each group concerning the linear unit, showing the extent of dental caries, was carried out using the Mann-Whitney test. Statistical analysis according to the feed and the region where the teeth were placed (maxilla or mandible) was carried out by the Kruskal-Wallis test. If more than 2/3 of the dental crown was lost due to serious abrasion and if it was impossible to observe in the process of treating samples, these teeth were excluded in the statistics.

CCCCCCCCCCCC(=O)[O-].[Na+] [C12, sodium laurate] gave an Inhibitory rate (Lactobacillus casei; isolate I) of 76%, a Soluble extracellular polysaccharide (Lactobacillus casei; isolate I, control 105.1 ± 7.2) of 25.1 ± 1.7 µg/mL and an Inhibitory rate (Lactobacillus casei; isolate II) of 71%. For the same compound, the Soluble extracellular polysaccharide (Lactobacillus casei; isolate II, control 121.4 ± 27.1) was 35.0 ± 2.9 µg/mL, the Inhibitory rate (Lactobacillus casei; isolate III) was 75% and the Soluble extracellular polysaccharide (Lactobacillus casei; isolate III, control 140.4 ± 4.9) was 34.7 ± 0.9 µg/mL. It also gave an Inhibitory rate (Lactobacillus casei; isolate IV) of 74%, a Soluble extracellular polysaccharide (Lactobacillus casei; isolate IV, control 151.4 ± 7.6) of 38.8 ± 4.1 µg/mL and an Inhibitory rate (Lactobacillus casei; isolate IX) of 79%. The Soluble extracellular polysaccharide (Lactobacillus casei; isolate IX, control 214.6 ± 18.8) was 46.1 ± 3.0 µg/mL, the Inhibitory rate (Lactobacillus casei; isolate V) was 73% and the Soluble extracellular polysaccharide (Lactobacillus casei; isolate V, control 137.4 ± 21.8) was 36.6 ± 4.3 µg/mL. The Inhibitory rate (Lactobacillus casei; isolate VI) was 74%, the Soluble extracellular polysaccharide (Lactobacillus casei; isolate VI, control 184.6 ± 6.5) was 48.5 ± 2.7 µg/mL and the Inhibitory rate (Lactobacillus casei; isolate VII) was 70%. For the same compound, the Soluble extracellular polysaccharide (Lactobacillus casei; isolate VII, control 149.9 ± 16.8) was 44.7 ± 3.1 µg/mL, the Inhibitory rate (Lactobacillus casei; isolate VIII) was 72% and the Soluble extracellular polysaccharide (Lactobacillus casei; isolate VIII, control 221.6 ± 20.1) was 62.6 ± 3.4 µg/mL. For the same compound, the Inhibitory rate (Lactobacillus casei; isolate X) was 72%, the Soluble extracellular polysaccharide (Lactobacillus casei; isolate X, control 201.7 ± 36.1) was 56.3 ± 8.2 µg/mL and the Inhibitory rate (Streptococcus sobrinus) was 79%. For the same compound, the Soluble extracellular polysaccharide (Streptococcus sobrinus; control 116.0 ± 17.2) was 24.0 ± 1.5 µg/mL, the Inhibitory rate (Streptococcus mutans; isolate XI) was 70% and the Soluble extracellular polysaccharide (Streptococcus mutans; isolate XI, control 95.2 ± 8.3) was 28.6 ± 3.5 µg/mL. It also gave an Inhibitory rate (Streptococcus mutans; isolate XII) of 58%, a Soluble extracellular polysaccharide (Streptococcus mutans; isolate XII, control 84.2 ± 8.6) of 35.2 ± 5.0 µg/mL and an Inhibitory rate (Streptococcus mutans; isolate XIII) of 69%. For the same compound, the Soluble extracellular polysaccharide (Streptococcus mutans; isolate XIII, control 90.5 ± 8.3) was 27.7 ± 3.3 µg/mL, the Inhibitory rate (Streptococcus mutans; isolate XIV) was 53% and the Soluble extracellular polysaccharide (Streptococcus mutans; isolate XIV, control 90.5 ± 2.9) was 42.6 ± 1.0 µg/mL. The Inhibitory rate (Streptococcus mutans; isolate XIX) was 70%, the Soluble extracellular polysaccharide (Streptococcus mutans; isolate XIX, control 113.7 ± 6.8) was 34.3 ± 3.3 µg/mL and the Inhibitory rate (Streptococcus mutans; isolate XV) was 62%. For the same compound, the Soluble extracellular polysaccharide (Streptococcus mutans; isolate XV, control 117.9 ± 4.6) was 44.5 ± 1.7 µg/mL, the Inhibitory rate (Streptococcus mutans; isolate XVI) was 66% and the Soluble extracellular polysaccharide (Streptococcus mutans; isolate XVI, control 143.2 ± 11.1) was 48.2 ± 4.5 µg/mL. It also gave an Inhibitory rate (Streptococcus mutans; isolate XVII) of 67%, a Soluble extracellular polysaccharide (Streptococcus mutans; isolate XVII, control 107.8 ± 17.0) of 35.4 ± 2.1 µg/mL and an Inhibitory rate (Streptococcus mutans; isolate XVIII) of 59%. For the same compound, the Soluble extracellular polysaccharide (Streptococcus mutans; isolate XVIII, control 98.5 ± 9.0) was 40.5 ± 1.7 µg/mL, the “Linear unit, Total (average ± standard deviation)” value (dental caries; 164 teeth, P < 0.01 vs caries-inducing feed (3.01 ± 2.35), normal feed 2.34 ± 1.37) was 1.71 ± 1.26 and the “Linear unit for fissure-region dental caries, Dm” value (shortened to “Linear unit … Dm”) (dental caries; Mandible, 1st molar) was 0. The “Linear unit for fissure-region dental caries, Ds” value (shortened to “Linear unit … Ds”) (dental caries; Mandible, 1st molar) was 7, the “Linear unit for fissure-region dental caries, E” value (dental caries; Mandible, 1st molar) was 72 and the “Linear unit … Dm” value (dental caries; Mandible, 2nd molar) was 0. The “Linear unit … Ds” value (dental caries; Mandible, 2nd molar) was 10, the “Linear unit for fissure-region dental caries, E” value (dental caries; Mandible, 2nd molar) was 55 and the “Linear unit … Dm” value (dental caries; Mandible, 3rd molar) was 0. For the same compound, the “Linear unit … Ds” value (dental caries; Mandible, 3rd molar) was 0, the “Linear unit for fissure-region dental caries, E” value (dental caries; Mandible, 3rd molar) was 16 and the “Linear unit … Dm” value (dental caries; Maxilla, 1st molar) was 0. The “Linear unit … Ds” value (dental caries; Maxilla, 1st molar) was 1, the “Linear unit for fissure-region dental caries, E” value (dental caries; Maxilla, 1st molar) was 61 and the “Linear unit … Dm” value (dental caries; Maxilla, 2nd molar) was 0. The “Linear unit … Ds” value (dental caries; Maxilla, 2nd molar) was 0, the “Linear unit for fissure-region dental caries, E” value (dental caries; Maxilla, 2nd molar) was 41 and the “Linear unit … Dm” value (dental caries; Maxilla, 3rd molar) was 0. The “Linear unit … Ds” value (dental caries; Maxilla, 3rd molar) was 0, the “Linear unit for fissure-region dental caries, E” value (dental caries; Maxilla, 3rd molar) was 17 and the “dental caries in experimental animals (in words)” value (dental caries; sodium laurate-added feed) was “noticeably reduced dental caries in experimental animals”.
